Measurements taken from patent US20200291018A1, “TAM KINASE INHIBITORS” (SYROS PHARMACEUTICALS, INC., priority 2017, published 2020).
Counter-ions that a name gives are not always drawn.

Experiments:
AXL = target: T1, AXL (Homo sapiens, UniProt P30530); test: TR-FRET kinase activity assay, AXL; format: biochemical; conditions: ATP at Km, 60 minutes
T1 sequence (P30530 26-894): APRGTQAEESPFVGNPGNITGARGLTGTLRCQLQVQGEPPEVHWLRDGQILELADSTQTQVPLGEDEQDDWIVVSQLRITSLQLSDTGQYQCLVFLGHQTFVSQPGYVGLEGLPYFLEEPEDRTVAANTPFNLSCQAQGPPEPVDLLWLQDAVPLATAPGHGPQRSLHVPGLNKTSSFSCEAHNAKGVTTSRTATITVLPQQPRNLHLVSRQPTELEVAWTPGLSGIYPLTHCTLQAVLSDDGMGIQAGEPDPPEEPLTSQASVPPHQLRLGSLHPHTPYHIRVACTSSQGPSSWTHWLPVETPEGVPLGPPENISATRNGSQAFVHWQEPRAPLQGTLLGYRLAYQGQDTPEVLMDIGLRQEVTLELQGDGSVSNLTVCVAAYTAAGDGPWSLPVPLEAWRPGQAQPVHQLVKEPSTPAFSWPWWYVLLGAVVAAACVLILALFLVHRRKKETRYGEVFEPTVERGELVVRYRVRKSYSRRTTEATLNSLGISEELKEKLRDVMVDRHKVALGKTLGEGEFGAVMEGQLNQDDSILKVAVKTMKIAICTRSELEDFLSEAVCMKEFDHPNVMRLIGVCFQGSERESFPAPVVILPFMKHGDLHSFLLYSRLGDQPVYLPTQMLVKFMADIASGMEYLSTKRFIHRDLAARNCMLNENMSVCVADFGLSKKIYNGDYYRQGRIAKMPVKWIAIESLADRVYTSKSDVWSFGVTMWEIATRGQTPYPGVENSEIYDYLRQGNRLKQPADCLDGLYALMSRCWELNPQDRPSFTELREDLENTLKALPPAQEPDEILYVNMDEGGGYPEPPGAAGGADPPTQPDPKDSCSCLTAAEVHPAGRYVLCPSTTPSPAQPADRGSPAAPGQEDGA
How it was run: (§1)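 TR-FRET signal from Eu-labeled phospho-site antibody bound to tyrosine-phosphorylated fluorescent peptide; inhibition lowers signal, giving IC50. Reactions: 50 mM HEPES pH 7.5, 10 mM MgCl2, 1 mM EGTA, 0.01% Brij 35, 1 mM DTT, ATP at Km per enzyme, 60 min, RT.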

TYRO3 = target: T2, TYRO3 (Homo sapiens, UniProt Q06418); test: TR-FRET kinase activity assay, TYRO3; format: biochemical; conditions: ATP at Km, 60 minutes
T2 sequence (Q06418 41-890): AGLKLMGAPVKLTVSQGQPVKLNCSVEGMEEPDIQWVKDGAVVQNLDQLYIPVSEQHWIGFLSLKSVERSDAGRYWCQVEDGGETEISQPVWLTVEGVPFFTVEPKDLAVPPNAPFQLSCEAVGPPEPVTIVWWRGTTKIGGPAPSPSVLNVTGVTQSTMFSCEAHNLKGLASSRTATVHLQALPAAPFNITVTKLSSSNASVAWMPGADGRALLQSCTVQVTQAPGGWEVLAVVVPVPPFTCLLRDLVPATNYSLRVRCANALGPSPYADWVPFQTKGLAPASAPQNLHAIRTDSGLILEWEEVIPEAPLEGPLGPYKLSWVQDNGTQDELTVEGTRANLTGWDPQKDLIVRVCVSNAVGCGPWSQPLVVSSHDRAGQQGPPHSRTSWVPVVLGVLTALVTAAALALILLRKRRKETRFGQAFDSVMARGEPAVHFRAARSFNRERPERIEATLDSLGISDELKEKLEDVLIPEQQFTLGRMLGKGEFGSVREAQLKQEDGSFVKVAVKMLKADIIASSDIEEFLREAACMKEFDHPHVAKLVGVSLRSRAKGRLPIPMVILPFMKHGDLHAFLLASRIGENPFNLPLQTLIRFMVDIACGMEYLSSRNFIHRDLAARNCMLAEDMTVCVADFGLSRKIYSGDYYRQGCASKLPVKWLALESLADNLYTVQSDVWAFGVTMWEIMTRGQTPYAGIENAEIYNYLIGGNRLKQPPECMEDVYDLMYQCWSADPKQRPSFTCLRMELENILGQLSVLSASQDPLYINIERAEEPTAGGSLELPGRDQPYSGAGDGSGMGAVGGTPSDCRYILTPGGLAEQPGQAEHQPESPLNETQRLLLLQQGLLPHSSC
How it was run: as §1

Structure (SMILES) | IC50 (AXL) [µM] | IC50 (TYRO3) [µM]
CCCC(C)Nc1ncc2c(=O)n(C3CCN(C(C)C)CC3)cc([C@H]3CC[C@H](O)CC3)c2n1 (stereo partly shown) [Compound 186] | 0.1 to 1 | > 10
CN1CCC(Nc2ncc3c(OC4CCNCC4)ncc([C@H]4CC[C@H](O)CC4)c3n2)C1=O (stereo partly shown) [Compound 162] | 1 to 10 | 1 to 10
CCCC(C)Nc1ncc2c(OCCN3CCOCC3)ncc([C@H]3CC[C@H](O)CC3)c2n1 (stereo partly shown) [Compound 182] | 1 to 10 | 0.1 to 1
CCCCNc1ncc2c(OC)ncc([C@H]3CC[C@H](O)CC3)c2n1 [Compound 127] | ≤ 0.1 | ≤ 0.1
O[C@H]1CC[C@H](c2cnc(OC3CCNCC3)c3cnc(NC4CCCCC4)nc32)CC1 [Compound 183] | 0.1 to 1 | > 10
CCC[C@@H](C)Nc1ncc2c(=O)n(C3CCNCC3)cc([C@H]3CC[C@H](O)CC3)c2n1 [Compound 152] | 1 to 10 | ≤ 0.1
O[C@H]1CC[C@H](c2cnc(OC3CCOCC3)c3cnc(NC4CCCC4)nc32)CC1 [Compound 132] | ≤ 0.1 | ≤ 0.1
CO[C@H]1C[C@@H](Oc2ncc([C@H]3CC[C@H](O)CC3)c3nc(N[C@@H](C)CC(F)(F)F)ncc23)C1 [Compound 434] | 0.1 to 1 | ≤ 0.1
CCCC(C)Nc1ncc2c(OC3CC(C)(C)N(C)C(C)(C)C3)ncc([C@H]3CC[C@H](O)CC3)c2n1 (stereo partly shown) [Compound 161] | ≤ 0.1 | ≤ 0.1
C[C@@H](CC(F)(F)F)Nc1ncc2c(O[C@H]3C[C@](C)(O)C3)ncc([C@H]3CC[C@H](O)CC3)c2n1 [Compound 430] | 0.1 to 1 | ≤ 0.1
CCCC(C)Nc1ncc2c(OC[C@H]3CC[C@@H](O)CC3)ncc([C@H]3CC[C@H](O)CC3)c2n1 (stereo partly shown) [Compound 157] | 0.1 to 1 | ≤ 0.1
CCCCNc1ncc2c(OC3CCOCC3)ncc([C@H]3CC[C@H](O)CC3)c2n1 [Compound 104, (1r,4r)-4-(2-(butylamino)-5-((tetrahydro-2H-pyran-4-yl)oxy)pyrido[4,3-d]pyrimidin-8-yl)cyclohexanol] | ≤ 0.1 | ≤ 0.1
CCCC(C)Nc1ncc2c(N(C)C3CCNCC3)ncc([C@H]3CC[C@H](O)CC3)c2n1 (stereo partly shown) [Compound 179] | 0.1 to 1 | ≤ 0.1
CCCC(C)Nc1ncc2c(OC3CCC(F)(F)CC3)ncc([C@H]3CC[C@H](O)CC3)c2n1 (stereo partly shown) [Compound 153] | 1 to 10 | 0.1 to 1
CCCCC[C@H](C)Nc1ncc2c(OC3CCNCC3)ncc([C@H]3CC[C@H](O)CC3)c2n1 [Compound 130] | ≤ 0.1 | ≤ 0.1
O[C@H]1CC[C@H](c2cnc(OC3CCNCC3)c3cnc(NC4CCC(F)(F)CC4)nc32)CC1 [Compound 164] | 1 to 10 | 0.1 to 1
CCCC(C)Nc1ncc2c(OC3CCS(=O)(=O)CC3)ncc([C@H]3CC[C@@H](O)CC3)c2n1 (stereo partly shown) [Compound 142] | 1 to 10 | 0.1 to 1
O[C@H]1CC[C@H](c2cnc(OC3CCOCC3)c3cnc(Nc4ccc(Cl)cc4)nc32)CC1 [Compound 134, (1r,4r)-4-(2-((4-chlorophenyl)amino)-5-((tetrahydro-2H-pyran-4-yl)oxy)pyrido[4,3-d]pyrimidin-8-yl)cyclohexan-1-ol] | ≤ 0.1 | ≤ 0.1

Structure (SMILES) | IC50 (AXL) [µM] | IC50 (TYRO3) [µM]
CCCC(C)Nc1ncc2c(=O)n(C3CCN(S(C)(=O)=O)CC3)cc([C@H]3CC[C@@H](O)CC3)c2n1 (stereo partly shown) [Compound 138] | 0.1 to 1 | ≤ 0.1
C[C@@H](CO)Nc1ncc2c(OC3CCOCC3)ncc([C@H]3CC[C@H](O)CC3)c2n1 [Compound 137] | 1 to 10 | 0.1 to 1
CCCC(C)Nc1ncc2c(=O)n(C3CCN(C(C)=O)CC3)cc([C@H]3CC[C@H](O)CC3)c2n1 (stereo partly shown) [Compound 128, 6-(1-acetylpiperidin-4-yl)-8-((1r,4r)-4-hydroxycyclohexyl)-2-(pentan-2-ylamino)pyrido[4,3-d]pyrimidin-5(6H)-one hydrochloride] | 0.1 to 1 | ≤ 0.1
CCCC(C)Nc1ncc2c(O[C@H]3CC[C@@H](O)CC3)ncc([C@H]3CC[C@H](O)CC3)c2n1 (stereo partly shown) [Compound 148] | 0.1 to 1 | ≤ 0.1
CCCC(C)Nc1ncc2c(OC3CCS(=O)(=O)CC3)ncc([C@H]3CC[C@H](O)CC3)c2n1 (stereo partly shown) [Compound 141] | 0.1 to 1 | ≤ 0.1
CCCC(C)Nc1ncc2c(OC3CCOCC3)ncc([C@H]3CC[C@H](O)CC3)c2n1 (stereo partly shown) [Compound 133] | 0.1 to 1 | ≤ 0.1
CCCC(C)Nc1ncc2c(OC3CCN(S(C)(=O)=O)CC3)ncc([C@H]3CC[C@H](O)CC3)c2n1 (stereo partly shown) [Compound 143] | 0.1 to 1 | ≤ 0.1
CCCC(C)Nc1ncc2c(NC3CCN(C(=O)C(F)(F)F)CC3)ncc([C@H]3CC[C@H](O)CC3)c2n1 (stereo partly shown) [Compound 165] | 0.1 to 1 | ≤ 0.1
CCCC(C)Nc1ncc2c(=O)n(C3CCN(CCC(=O)N(C)C)CC3)cc([C@H]3CC[C@H](O)CC3)c2n1 (stereo partly shown) [Compound 151] | 0.1 to 1 | ≤ 0.1
CCCC(C)Nc1ncc2c(=O)n(C3CCN(CC(=O)N(C)C)CC3)cc([C@H]3CC[C@@H](O)CC3)c2n1 (stereo partly shown) [Compound 149] | 0.1 to 1 | ≤ 0.1
CCCC(C)Nc1ncc2c(OC3CCOCC3)ncc([C@H]3CC[C@@H](N(C)C)CC3)c2n1 (stereo partly shown) [Compound 184] | 1 to 10 | > 10
CCCC(C)Nc1ncc2c(=O)n(C3CCN(CCOC)CC3)cc([C@H]3CC[C@H](O)CC3)c2n1 (stereo partly shown) [Compound 150] | 0.1 to 1 | ≤ 0.1
Cc1nccn1CCNc1ncc2c(OC3CCNCC3)ncc([C@H]3CC[C@H](O)CC3)c2n1 [Compound 163] | 1 to 10 | ≤ 0.1
CCCC(C)Nc1ncc2c(N(C)C3CCN(C)CC3)ncc([C@H]3CC[C@H](O)CC3)c2n1 (stereo partly shown) [Compound 146] | 1 to 10 | ≤ 0.1
CCCC(C)Nc1ncc2c(O[C@H]3C[C@H](O)C3)ncc([C@H]3CC[C@H](O)CC3)c2n1 (stereo partly shown) [Compound 187] | 0.1 to 1 | ≤ 0.1
CCCC(C)Nc1ncc2c(=O)n(CCN(C)C)cc([C@H]3CC[C@H](O)CC3)c2n1 (stereo partly shown) [Compound 169] | 1 to 10 | ≤ 0.1
CCCCNc1ncc2c(NCc3ccc(F)cc3)ncc([C@H]3CC[C@H](O)CC3)c2n1 [Compound 103, 4-[2-(butylamino)-5-[(4-fluorophenyl)methylamino]pyrido[4,3-d]pyrimidin-8-yl]cyclohexanol hydrochloride] | 0.1 to 1 | ≤ 0.1
